The text below walks through data of patent publication US20100069319A1, “Mercaptopurine derivatives and uses thereof” (priority 2007, published 2010).

Series [1] concerns B-CLL cells. As to the kind of experiment: Apoptosis by Annexin-Cy5 FACS analysis. In kind it is cell-based, human. The following applies: 16 h. As for the experimental part:
Apoptosis analysis in B-CLL cells treated with 6-MP derivatives at different concentration (16 h, at 37° C.) was done by FACS analysis. B-CLL cells were incubated with FITC-CD19 anti-human antibodies (Becton Dickinson, NJ, USA) for 20 minutes at 4° C. After washing off the unbound antibodies, samples were incubated with 5 μl Annexin-Cy5 (Pharmingen, San Diego, Calif., USA) in 10 mM HEPES pH 7.4 buffer containing 140 mM NaCl and 2.5 mM CaCl2, (HBS) for 10 minutes at room temperature. Subsequently, unbound Annexin was washed out and the samples were analyzed using FACScan analyzer (Becton-Dickinson, NJ, USA). The lymphocytes were counted and gated according to their size in forward and side scatters.
The slight decrease in viability of B-CLL human peripheral blood mononuclear cells (PBMC) upon incubation in the presence of 6-MP or SA-6MP was further investigated. B-CLL cells were treated with various concentrations of either 6-MP or SA-6MP and were subjected to flow cytometry analysis, as described in Materials and Methods, in order to monitor cells undergoing apoptosis.

A further series relates to Hela cells. As to the kind of experiment: Cell death by trypan blue dye exclusion / PI. In kind it is cell-based, human. Particulars: 16 h; for sensitivity to treatment (cell death, words): 100 μM. As for the experimental part:
(§1) Cell death was monitored by trypan blue dye exclusion test or propidium iodide (PI) incorporation. Treated cells were incubated with PI (2 μg/ml) for 20 min at 37° C., washed with HBS and examined by fluorescence microscopy or analyzed by flow cytometry using fluorescence-activated cell sorting (Becton Dickinson FACScan Instrument using CellQuest software (BD Bioscience, San Jose, Calif.). Monolayer cells were trypsinized and washed with HBS before FACS analysis.
(§2) In parallel, the trypan blue dye exclusion test was used to assess cell death. In particular, different concentrations of 6MP and SA-6MP were applied to various cell cultures (Daudi and Hela cells, each at 30,000 cells/well) as described in Materials and Methods. The cells were stained with trypan blue to monitor the lethal effect of several concentrations of the tested conjugates as the percentage of dead cells. As shown in FIG. 3A-3D, cell death induced by 6-MP and SA-6MP was both concentration and cell type dependent. […] SA-6MP at concentrations higher than 150 μM reduced the residual viability to 75% (FIG. 3D).

For series [2], the system named is B-CLL cells. As to the kind of experiment: Cell death by trypan blue dye exclusion / PI. The format is cell-based, human. The following applies: 16 h. How it is done: as §1, §2
The next series concerns MDR HT-29 cells. Nature of the series: Cell death by trypan blue dye exclusion / PI. In kind it is cell-based, human. Particulars: 16 h; for sensitivity to treatment (cell death, words): MDR HT-29, 100 μM. How it is done:
as §1, §2

In series [3] the test system is Daudi cells. Nature of the series: [3H] thymidine incorporation into DNA (cell proliferation). The following applies: 16 h. The format is cell-based. How it is done: The effects of 6-MP derivatives on DNA synthesis were assessed by [Methyl-^3H] thymidine incorporation into DNA. All the experiments performed with cells were carried out at least in triplicates. Adhesive cells (N87, Hela HtTA-1 and MDR HT-29) were seeded at 10,000 cells/well (96-well plate) or 60,000 cells/well (24-well plate). Cells in suspension (B-CLL, Daudi, HL-60, Jurkat, MOLT4 and U937cells) were seeded at 15,000 cells/well (96-wells plate) or 100,000 cells/well (24-wells plate). Adhesive cells were grown at 37° C. for 6 h after seeding, before treatment. For the assessment of [Methyl-^3H] thymidine incorporation, cells were treated with various concentrations of 6-MP derivatives at 37° C. for 16 h in the presence of [Methyl-^3H] thymidine (0.8-1.0 μCi/well). Then, plates were frozen (−20° C., 1 h). Adhesive cells were trypsinized before harvesting. Cells in suspension were directly harvested after thawing out the frozen cells.
The antiproliferative effect of 6-MP and SA-6MP on various cell lines was assessed by determining [^3H] thymidine incorporation into the DNA. 6-MP and SA-6MP at 0-200 μM were applied to Daudi, Hela and N87 cells cultured in 96-well plates in the presence of [^3H] thymidine, as described in Materials and Methods. […] As further shown, the sensitivity to the prodrug is cell type dependent.

In series [4] the test system is Daudi cells. Nature of the series: Cell death by trypan blue dye exclusion / PI. The format is cell-based. Particulars: 16 h. How it is done:
as §1, §2

The next series relates to Hela. As to the kind of experiment: Anti-proliferative concentration IC50 (Table 2). In kind it is cell-based, human. The following applies: Homo sapiens, 16 h, tested at 0-200 μM, read-out: Anti-proferative concentration - IC50 (mean ± SE). As for the experimental part: (§3) Cell proliferation was determined by the XTT viability assay in 96-well plates, based on the reduction of tetrazolium salt to soluble formazan compounds by living cells. Cells (10,000-15,000 cells/well) were seeded in a 96-well plate. After 16 h incubation with various concentrations of 6-MP, 6-MPR and their S-allylthio-derivatives, 50 μl of XTT/PMS mixture (50 μM PMS, 0.1% XTT in medium) was added onto the cells. After an incubation period of 3-4 h at 37° C. the absorbance of the samples was measured in an ELISA Reader at 450 nm. SDS (1%, 10 μl/well) was added to reference wells before adding the XTT/PMS solution.
(§4) The results of viability and proliferation were expressed as mean values±SD (n=3-6). For each cell line, the results were analyzed using two-way analysis of variance (ANOVA) followed by Bonferroni's posttest for the factors of the drugs used and their various concentrations, considering p<0.05 as significant. IC50 values (mean±SEM) were obtained from the linear range of the viability curve versus drug concentration (XTT assay).
(§5) In particular, cell in suspension, namely, Daudi, HL-60, U937, Molt-4, Jurkat and B-CLL, were tested at prodrug concentration of 0-100 μM, and monolayer cells, namely, Hela HtTA-1, MDR HT-29 and N87, were tested at prodrug concentration of 0-200 μM. in both cases, cell viability was determined by trypan blue dye exclusion assay. Data are presented in Table 2 hereinbelow for 6MP derivatives-treated for 16 h.

For another series, the system named is U937. Nature of the series: Anti-proliferative concentration IC50 (Table 2). In kind it is cell-based, human. Particulars: Homo sapiens, U-937; U937, 16 h, tested at 0-100 μM; read-out: Anti-proferative concentration - IC50 (mean ± SE). How it is done:
as §3, §4, §5

The next series deals with MDR HT-29. As to the kind of experiment: Anti-proliferative concentration IC50 (Table 2). In kind it is cell-based, human. Particulars: Homo sapiens; MDR HT-29, 16 h, tested at 0-200 μM; read-out: Anti-proferative concentration - IC50 (mean ± SE). As for the experimental part:
as §3, §4, §5

A further series relates to Jurkat. As to the kind of experiment: Anti-proliferative concentration IC50 (Table 2). Particulars: Homo sapiens, 16 h, tested at 0-100 μM, read-out: Anti-proferative concentration - IC50 (mean ± SE). In kind it is cell-based, human. How it is done: as §3, §4, §5

As for `C=CCSSc1ncnc2nc[nH]c12` [SA-6MP, S-allylthio-6-mercaptopurine], the “percent of apoptotic cells” value amounted to 38% in the series with B-CLL cells [1] (50 μM) and 95% in the series with B-CLL cells [1] (100 μM). In addition, the “sensitivity to treatment (cell death, words)” value with Hela cells and with MDR HT-29 cells was “almost non-sensitive” each time. Moreover, the viability at 150 µM with Hela cells (Homo sapiens, 150 μM, read-out: viability compared to non-treated cells) turned out to be 65%; in the series on MDR HT-29 cells (Homo sapiens, MDR HT-29, 150 μM, read-out: viability compared to non-treated cells) it was 40%. The compound further returned a residual viability in the series on B-CLL cells [2] (concentrations higher than 150 μM) of 75%. Besides, the IC50 with Daudi cells [3] (Homo sapiens, [3H] thymidine incorporation, read-out: concentration at which 50% inhibition was observed) is roughly 20 µM; in the series with Hela, 114 ± 12 µM; in the series on U937, 46.7 ± 4.8 µM; in the series on MDR HT-29, 126 ± 19.1 µM; in the series on Jurkat, 54.7 ± 6.3 µM. Moreover, in the series on Daudi cells [4] (Homo sapiens, 50 μM, read-out: residual viability), the viability at 50 µM is roughly 20%.

For the compound `Sc1ncnc2nc[nH]c12` [6-MP, 6-Mercaptopurine, reference compound], in the series on B-CLL cells [1] (0-150 μM), the “percent of apoptotic cells” value was “no significant increase in the percent of apoptotic cells”. Further, the “sensitivity to treatment (cell death, words)” value in the series with Hela cells and with MDR HT-29 cells was “almost non-sensitive” in each case. In the series with Hela cells (Homo sapiens, 200 μM), the viability at 200 µM turned out to be 75%. Besides, in the series with B-CLL cells [2] (100-200 μM), the “sensitivity to treatment” value was “almost insensitive”. Moreover, in the series with Daudi cells [3] (at the same concentrations (0-200 μM)), the “inhibition of proliferation” value is recorded as “no inhibition of proliferation”. Further, in the series with Daudi cells [4] (concentrations higher than 100 μM), the “effect on cell viability” value is given as “no significant effect on cell viability”. The IC50 with Hela, in the series with U937, with MDR HT-29 and in the series with Jurkat was greater than 200 µM each time.

By viability is commonly meant a read-out of living cells in per cent, often relative to untreated cells.
